The values that follow come from patent publication US20230026232A1, “AHR INHIBITORS AND USES THEREOF” (Ikena Oncology, Inc., priority 2019, published 2023).

Data set [1] in a line: Glass transition temperature (Tg) by MDSC. The following applies: for Tg: bulk API, melt-quench amorphous, MDSC. Format: physicochemical. As for the experimental part:
DSC was performed using a TA Instruments Discovery DSC2500 differential scanning calorimeter equipped with a TA instruments Refrigerated Cooling System 90 operating in either modulated or ramp mode. DSC was used to measure thermodynamic events and characteristics of Compound A free base and hemi-maleate salt, and subsequent SDIs. Events observed include the glass transition temperature (Tg), cold crystallization (Tc), defined as a crystallization event at a temperature lower than the melt temperature, and melting temperature (Tm). SDI samples were placed in non-hermetic aluminum pans and heated at a constant rate of 2.0° C./min over a 5-200° C. temperature range. The system was purged by nitrogen flow at 50 mL/min to ensure inert atmosphere through the course of measurement. […] Amorphous API was successfully created by rapidly quenching liquefied Compound A using Refrigerated Cooling System 90. The resulting amorphous API was analyzed by modulated DSC. A summary of DSC analysis parameters can be found in Tables 2 and 3.
Thermal properties of both Compound A forms were measured by both DSC and MDSC. […] The Tg of each was measured via a melt-quench technique, heating past its melting temperature and rapidly cooling to trap the molten material in an amorphous state. […] (FIG. 2/Table 11).
Samples were stored at the elevated humidity conditions for 18 hours at ambient temperature before sealing in hermetic pans and analysis by MDSC. Results are reported as a function of relative humidity (RH) in FIG. 13 and Table 20. All lead SDI formulations (HPMCAS-H and PVP VA64 dispersions) have a Tg that is low at elevated humidity conditions and is predicted to require conservative packaging (i.e., desiccant, foil-foil seal, or etc.) to obtain sufficient long-term physical stability of the SDI. To ensure long-term physical stability in open packaging at all ICH conditions, it is desirable that the SDI have a Tg higher than 50° C. at 75% RH, and ideally higher than 60° C. at 75% RH.

Another data set relates to CT26.WT. In words: CT26.WT syngeneic colorectal cancer model, tumor growth, survival and re-challenge. Format: in vivo, Balb/cJ mice. As for the experimental part: The effect of single agent Compound A, and Compound A in combination with anti-PD-1 antibody (BioXcell RMP1-14) on TGI and tumor survival was evaluated in the CT26.WT syngeneic model of colorectal cancer. Balb/cJ female mice were inoculated subcutaneously with tumor cells and 4 days after inoculation, Compound A (10 mg/kg or 25 mg/kg) or Vehicle was administered orally QD for a total of 53 doses. Concurrently, anti-PD-1 antibody (10 mg/kg) was administered IP twice a week for a total of 5 doses.
At ≥95 days after the appearance of CRs in mice treated with the combination of Compound A and anti-PD-1 antibody, the responder animals were re-challenged with CT26.WT cells. Five naïve mice were also injected with CT26.WT cells as a positive control for tumor formation.

A short description of data set [2]: Nonclinical safety studies incl. 28-day GLP study in monkeys. It counts as in vivo. The source says: The nonclinical safety of Compound A has been evaluated in a series of pharmacological, single-dose and repeated-dose toxicological studies in rodent and non-rodent species including 28-day Good Laboratory Practice (GLP) studies in rat and monkeys. […] All changes were resolved or resolving after 2 weeks of dosing cessation, except for the testicular changes in rats. The nonclinical safety assessment from these studies supports clinical evaluation of Compound A in humans. The initial planned dose of Compound A for this study is 200 mg once daily (QD), based on evaluation of the Compound A nonclinical safety data.
During dose escalation, a minimum of 3 patients are required at each dose. Depending on accrual rate and occurrence of DLTs, 3, 4, 5, or 6 patients may be enrolled at each new dose until the last of those patients completes the 21-day DLT assessment period. Based on the mTPI-2 design, the number of patients who are enrolled at a dose but are not yet fully evaluable for DLT assessment may not exceed the number of remaining patients who are at risk of developing a DLT before the dose would be considered unacceptably toxic. In general, 3 to 14 patients can be enrolled at a given dose level. Administration of Compound A to the first 2 patients in each new dose cohort is staggered by a minimum of 15 hours.

The next data set deals with T1, AHR (Homo sapiens, UniProt P35869).
T1 sequence (P35869 11-848): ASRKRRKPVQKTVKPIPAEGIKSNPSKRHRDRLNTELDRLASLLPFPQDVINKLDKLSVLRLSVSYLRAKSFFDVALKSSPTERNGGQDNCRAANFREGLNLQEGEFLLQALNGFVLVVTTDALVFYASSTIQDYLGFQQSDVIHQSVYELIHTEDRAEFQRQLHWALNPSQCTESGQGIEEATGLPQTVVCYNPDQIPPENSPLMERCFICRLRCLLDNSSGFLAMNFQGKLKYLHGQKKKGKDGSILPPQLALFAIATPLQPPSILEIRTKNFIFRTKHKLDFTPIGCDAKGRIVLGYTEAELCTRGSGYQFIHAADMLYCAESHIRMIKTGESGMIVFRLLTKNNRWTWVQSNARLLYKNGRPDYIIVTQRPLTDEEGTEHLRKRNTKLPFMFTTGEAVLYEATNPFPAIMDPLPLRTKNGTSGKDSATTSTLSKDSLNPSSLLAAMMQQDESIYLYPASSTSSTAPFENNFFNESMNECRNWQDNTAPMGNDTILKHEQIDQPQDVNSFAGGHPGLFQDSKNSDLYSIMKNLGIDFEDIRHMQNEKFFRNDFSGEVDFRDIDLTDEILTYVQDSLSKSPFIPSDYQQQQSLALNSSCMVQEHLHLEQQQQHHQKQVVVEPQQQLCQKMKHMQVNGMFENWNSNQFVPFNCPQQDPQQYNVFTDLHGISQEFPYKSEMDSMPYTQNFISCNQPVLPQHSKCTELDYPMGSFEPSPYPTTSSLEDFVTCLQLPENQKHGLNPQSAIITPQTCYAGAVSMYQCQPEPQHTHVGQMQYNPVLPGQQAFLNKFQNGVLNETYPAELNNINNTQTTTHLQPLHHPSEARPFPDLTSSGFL
In words: CYP1B1 gene expression in human whole blood ex vivo, basal and L-kynurenine-induced. Format: cell-based. Set-up: endogenous in cells. The note with it: Compound A concentrations >0.5 μM, basal and 20 μM L-kynurenine activated, 24 hours, 2 donors. As for the experimental part:
To further examine the effects of Compound A on basal and ligand-activated AHR-dependent gene expression in human immune cells, blood samples from 2 healthy human donors were exposed ex vivo to Compound A in the presence or absence of 20 μM L-kynurenine to activate AHR. After 24 hours, cells were evaluated for CYP1B1 gene expression. In whole blood samples without AHR activation, basal levels of CYP1B1 expression were inhibited by Compound A treatment in both donors (FIG. 30A). […] In both donors, Compound A concentrations >0.5 μM inhibited CYP1B1 gene expression by greater than 50% under basal and ligand activated conditions.

Regarding `CC(C)c1cnn2c(N[C@@H]3CCc4[nH]c5ccccc5c4C3)nc(-c3cncc(F)c3)nc12` [Compound A, (R)—N-(2-(5-fluoropyridin-3-yl)-8-isopropylpyrazolo[1,5-a][1,3,5]triazin-4-yl)-2,3,4,9-tetrahydro-1H-carbazol-3-amine], the Tm/Tg ratio in data set [1] (K/K, indicator of physical stability) is given as 1.30. Further, the Tg in data set [1] (listed as Compound A Free Base) and in data set [1] (listed as free base) was 95 °C each time. For the same compound, the “TGI relative to vehicle treated mice” value in the data set with CT26.WT (Compound A 10 mg/kg PO QD (alone or with anti-PD-1 10 mg/kg IP twice a week)) was 39.8%; in the data set with CT26.WT (Compound A 25 mg/kg PO QD (alone or with anti-PD-1 10 mg/kg IP twice a week)) it was 40.9%. In data set [2] (monkey), the “noteworthy findings in nonclinical safety studies” value is “decreased thymus weights and cortical lymphocytes”. In addition, in data set [2] (monkey, primates, plasma, read-out: AUC where QTc increases are noted), the exposure (AUC) is 188 µg·h/mL. In addition, in data set [2] (monkey, primates, plasma, read-out: Cmax where QTc increases are noted), the Cmax is 11200 ng/mL. The QTc prolongation entry in data set [2] (monkeys) is given as “up to 11%”. Further, the “inhibition of CYP1B1 gene expression” value on AHR was “greater than 50%”.
